Assay results from PubChem BioAssay (NCI).
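Where inhibition never reached the appropriate level, the endpoint shown equals the highest concentration tested. Otherwise, values were interpolated linearly from a five-concentration, 48-hour dose response in 96-well plates. TGI: total growth inhibition.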 Where a SMILES comes first, the peptide text is derived from it. The star is where a group is joined. Boc = CC(C)(C)OC(=O)*; OSu = O=C1CCC(=O)N1O*

Key:
Test in all cases: NCI anticancer screen, dose series, 48 h
CCRF-CEM leukemia = test system: CCRF-CEM leukemia
HT29 colon = test system: HT29 colon
ACHN renal = test system: ACHN renal
M14 melanoma = test system: M14 melanoma
HCT-116 colon = test system: HCT-116 colon
SF-295 CNS = test system: SF-295 CNS
OVCAR-3 ovarian = test system: OVCAR-3 ovarian
SNB-75 CNS = test system: SNB-75 CNS
NCI-H460 lung = test system: NCI-H460 lung
LOX IMVI melanoma = test system: LOX IMVI melanoma
SK-MEL-5 melanoma = test system: SK-MEL-5 melanoma

SMILES	TGI (CCRF-CEM leukemia) [µM]	TGI (HT29 colon) [µM]	TGI (ACHN renal) [µM]	TGI (M14 melanoma) [µM]	TGI (HCT-116 colon) [µM]	TGI (SF-295 CNS) [µM]	TGI (OVCAR-3 ovarian) [µM]	TGI (SNB-75 CNS) [µM]	TGI (NCI-H460 lung) [µM]	TGI (LOX IMVI melanoma) [µM]	TGI (SK-MEL-5 melanoma) [µM]
O=C1CC2C=CC(O)C(C1)C2 (stereo not given)	> 100	> 100	> 100	> 100	> 100	> 100	> 100	> 100	> 100	> 100	–
O=c1c2c3ccccc3[nH]c2c2cccc3c2n1CCC3	> 100	> 100	> 100	> 100	> 100	> 100	> 100	> 100	> 100	–	79.2
COc1ccc(/C(=C/n2ccnc2)C(=O)c2ccc(OC)c(OC)c2)cc1	> 100	–	> 100	> 100	> 100	–	> 100	> 100	> 100	> 100	> 100
CC1(C)CC2(C)CC1CC2O (stereo not given)	> 100	> 100	–	> 100	> 100	> 100	> 100	> 100	–	> 100	> 100
Cc1ccccc1C1OC1C(=O)c1ccccc1N (stereo not given)	> 100	> 100	> 100	> 100	> 100	–	–	–	> 100	> 100	> 100
c1ccc([P+](CCNCCNCC[P+](c2ccccc2)(c2ccccc2)c2ccccc2)(c2ccccc2)c2ccccc2)cc1	–	> 100	> 100	> 100	> 100	> 100	> 100	> 100	> 100	–	> 100
N#CCCN(c1ccc(C=Nc2cccc([N+](=O)[O-])c2)cc1)S(=O)(=O)c1ccccc1	> 100	> 100	–	> 100	> 100	> 100	> 100	> 100	–	–	–
COc1ccc2c(c1)c1c(n2CCN2CCOCC2)-c2ccccc2CC1	69.5	> 100	> 100	> 100	> 100	> 100	> 100	> 100	89.2	–	46.3
Cc1c(/C=N\NC(=S)N2CCN(C(=S)N/N=C\c3c(C)n(C)n(-c4ccccc4)c3=O)CC2)c(=O)n(-c2ccccc2)n1C	–	34.9	> 100	> 100	> 100	> 100	> 100	48.7	> 100	–	> 100
Nc1nc2ncc(SCc3ccc(C(=O)NC(CCC(=O)O)C(=O)O)cc3)cc2c(=O)[nH]1 (stereo not given)	–	> 100	> 100	> 100	> 100	> 100	> 100	–	> 100	> 100	> 100
c1ccc(C[P+]2(c3ccccc3)c3ccccc3-c3ccccc32)cc1	> 100	–	–	> 100	> 100	> 100	> 100	> 100	–	> 100	> 100
CC(C)=CCN1CC(C)C(=O)Nc2cc(Cl)ccc21 (stereo not given)	> 100	38.3	67.5	43.3	31.9	> 100	32.9	–	40.7	32.4	26.5
Cc1c(Cl)ccc2c(=O)c3cccc(CC(=O)O)c3oc12	> 100	> 100	> 100	> 100	> 100	> 100	> 100	–	> 100	> 100	> 100
Clc1cc(N/N=C(/c2ccccc2)c2ncccn2)ncn1	73.9	> 100	22.9	> 100	28.5	77.6	76	74.4	46.6	–	> 100
O=C1CC(C(O)CO)CC(=O)N1 (stereo not given)	> 100	> 100	> 100	> 100	> 100	> 100	> 100	–	> 100	> 100	> 100
C[C@]12OC[C@H](c3ccccc3)N1C(=O)C1[C@H]2CC12SCCS2 (stereo not given in full)	> 100	> 100	> 100	> 100	> 100	> 100	> 100	> 100	> 100	–	> 100
Cc1ccc(S(=O)(=O)N2CCN3C(=O)c4ccccc4C32c2ccc(F)cc2)cc1 (stereo not given)	80	> 100	> 100	> 100	> 100	> 100	> 100	> 100	> 100	–	35.2
O=c1[nH]c2nc3ccccc3c(=O)n2/c1=C/c1ccc(O)cc1	> 100	72	> 100	> 100	> 100	> 100	> 100	> 100	–	> 100	> 100
C=CCN(CC=C)Cn1c(=S)sc2ccccc21	47.5	–	> 100	> 100	> 100	> 100	> 100	> 100	> 100	47.1	> 100
CC(C)(C)OC(=O)NC(Cc1ccc(O)cc1)C(=O)NC(CCCCN)C(=O)NC(Cc1ccc(O)cc1)C(=O)NC(CCCCN)C(=O)ON1C(=O)CCC1=O (stereo not given) (Boc-YKYK-OSu; configuration not given here)	> 100	> 100	> 100	> 100	> 100	–	–	> 100	> 100	–	> 100
CC(=O)OCC1OC(N2C(=O)/C(=C\c3ccc(Cl)cc3)C(N)=Nc3ccccc32)C(OC(C)=O)C(OC(C)=O)C1OC(C)=O (stereo not given)	–	70.2	45.7	37.4	30.2	> 100	32.6	74.4	> 100	39.2	27.1
Cc1ccc(-c2cc(N)n(-c3nc4c([nH]3)c(=O)n(C)c(=O)n4C)n2)cc1	> 100	> 100	10.7	24.4	15.9	24.9	18.9	–	18.4	–	17
